Test results reported in article PMC11061149, “Protein mimetic 2D FAST rescues alpha synuclein aggregation mediated early and post disease Parkinson’s phenotypes” (Nature Communications, 2024).
Values joined by “and” are separate entries in the source; they are usually repeats but may differ in a detail not shown here. Identical values can stand only once.

How the values were obtained:
[1] = tested on: NL5901 worms (αS-YFP in body wall muscle cells); assay: Confocal counting of αS-YFP inclusions in NL5901 worms; assay type: in vivo, C. elegans; details: for number of inclusions in NL5901, individual trials: 50 µM ligand; for number of inclusions: 50 μM ligand
Experimental: In NL5901 strain, αS-YFP is expressed in the muscle cells of worms. The aggregates of αS-YFP are visible from day 4 and the maximum number of αS-YFP aggregates are visible round day 8 and day 9. The standard worm conditions were used for the culturing of various worm strains. […] The cultures of OP50 were prepared by incubating 50 mL of LB medium with OP50 18 h at 37 °C and the final OD value was adjusted to 0.5 at 600 nm. The NGM plates were prepared by treating them with 350 µL OP50 and leaving the plates at 20 °C for 3 days. […] The NGM plates (with NGM media) were used for the treatment of different worm strains with ligands. […] The NGM plates treated with ligands were prepared and used within 24 h. We used these plates to treat various disease strains for different assays. This experiment was performed based on previously described protocols with slight modifications[24],[65],[88]. […] On day two, the worms were divided into two batches. […] On day four, the ligand (10–50 µM, stock conc. = 10 mM in DMSO, DMSO from 0.1–0.5%, v/v) was added again to PLATE 3. […] For each condition, six biological replicates were performed and at least 10 technical replicates were used for each biological replicate. […] (n = 6 independent experiments and each n consisted of a minimum of ten technical replicates).

UA196 worms = assay: Motility assay of UA196 worms; assay type: in vivo, C. elegans
Experimental: Briefly, all worm strains were bleached at the same time and the eggs were incubated on PLATE 1. On day two, the worms were divided into two batches. […] The liquid media for PLATE 4 A/B was prepared with 67.28% (v/v) of M9 buffer, 75 μM FUDR, 0.1% of 1 M magnesium sulfate (v/v), 0.1% of 1 M calcium chloride (v/v), 2.5% of 1 M potassium phosphate solution (pH 6, v/v), and 30% (v/v) of OP50 (0.5 OD600nm). […] To test the effect of each ligand on disease worm strains (NL5901 or UA196), there were four conditions were used in PLATE 4 A/B: […] The assay was started on day four using the WMicroTracker ARENA plate reader (Phylumtech, Santa Fe, Argentina) at 20 °C for 1 h per day over a 14-day period at intervals of 24 h. The WMicroTracker ARENA plate reader uses a large array of infrared light microbeams in each well of the plate to detect the interference caused by the movement of the worms. The output by the ARENA plate reader is an average of the overall movement of all worms present in each well, which is denoted as the motility of the worms in each well. […] After collecting the data each day, the PLATE 4 A/B was again placed on the shaker (100 rpm) at 20 °C in the incubator. The PLATE 4 A/B was on the on the shaker (100 rpm) at 20 °C in the incubator the whole duration of the experiment except only when the reading was collected on the WMicroTracker ARENA plate reader for 1 h.

[2] = tested on: HEK cells expressing αSA53T-YFP; assay: MTT reduction assay of HEK cells treated with αS aggregated with or without ligand; assay type: cell-based, human
Experimental: The aggregation of endogenous monomeric αS-A53T-YFP into fibers can be detected by the intracellular fluorescent puncta (Fig. 3a, + αS). A solution of 100 μM αS was aggregated in the absence and presence of NS132 at an equimolar ratio for four days. The resulting solutions of αS fibers (5 μM in monomeric αS, ±NS132) were introduced to HEK cells in the presence of Lipofectamine 3000 for 24 h. In contrast to the control (no fibers), we observed a significant number of fluorescent inclusions in the presence of αS fibers (Fig. 3a, white arrows, +αS), which was a consequence of the templating of endogenous monomeric αS-A53T-YFP by the exogenously added αS fibers. […] Moreover, we observed the colocalization of an adaptor protein, p62, in the aggresome of αS inclusions in HEK cells (Fig. 3b, +αS, red),[51]–[54]. […] We also quantified the inclusions (αS-A53T-YFP) using a ProteoStat dye-based high throughput 96-well plate reader-based assay recently developed in our lab[24]. […] The viability of HEK cells was measured using the (3-(4,5-dimethylthiazol-2-yl)-2,5-diphenyltetrazolium bromide) (MTT) reduction based assay.
This assay was performed based on a previous protocol with slight modifications. […] The crystals were dissolved with gentle shaking of the plate, and subsequently, the absorbance was measured at 570 nm using an Infinite M200 Pro Plate Reader (Tecan, Grŏdig, Austria). […]

## Cc1ccc(NC(=O)c2ccc(NC(=O)c3ccc([N+](=O)[O-])c(NCCc4c[nH]c5ccccc45)n3)c(NCC3CCCCC3)n2)c(OCC(=O)O)n1 [NS132]
[1]; Day 8
  number of inclusions in NL5901, individual trials: 3 and 2 and 6 and 5 and 9 and 4 and 7 and 8
[1]; Day 9
  number of inclusions in NL5901, individual trials: 5 and 6 and 7 and 8 and 11 and 10 and 3 and 9 and 4
[1]; day eight
  number of inclusions: ~ 5 inclusions/worm
[1]; day nine
  number of inclusions: ~ 6.6 inclusions/worm
UA196 worms; 50 µM ligand (day two and day four), during the aging process
  motility of UA196 worms, in words: noticeable rescue
UA196 worms; UA196+NS132, Day 4, per trial
  Motility (activity counts): 206 and 197 and 180 and 188
UA196 worms; UA196+NS132, Day 5, per trial
  Motility (activity counts): 205 and 178 and 179 and 183
UA196 worms; UA196+NS132, Day 6, per trial
  Motility (activity counts): 161 and 191 and 157 and 201
UA196 worms; UA196+NS132, Day 7, per trial
  Motility (activity counts): 139 and 152 and 174 and 165
UA196 worms; UA196+NS132, Day 8, per trial
  Motility (activity counts): 150 and 125 and 135 and 134
UA196 worms; UA196+NS132, Day 9, per trial
  Motility (activity counts): 143 and 94 and 105 and 78
UA196 worms; UA196+NS132, Day 10, per trial
  Motility (activity counts): 97 and 68 and 112
UA196 worms; UA196+NS132, Day 13, per trial
  Motility (activity counts): 24 and 17 and 22 and 19
UA196 worms; UA196+NS132, Day 14, per trial
  Motility (activity counts): 19 and 14 and 23
[2]; HEK cells + Synuclein fibers aggregated with equimolar NS132, control = 1
  relative viability of HEK cells, individual trials: 0.8792 and 0.8235 and 0.899 and 0.8879 and 0.9679 and 0.8608 and 0.7821 and 0.8196 and 0.8279 and 0.7732 and 0.9011 and 0.8063 and 0.8583 and 0.8947 and 0.7357 and 0.8112
[2]; αS aggregated solution with an equimolar ratio of NS132 (52% with αS alone)
  viability of HEK cells: 85%
